Results from PubChem BioAssay AID179 (DTP/NCI, 2004).
pEC50, pIC50: −log10 of the molar value. Where “and” joins values, the source holds several entries; their conditions need not be identical. Equal values may be shown once. Calls of active or inactive are those of the source.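 Rule for the calls: active = compounds giving half or more protection of infected cells from virus-caused growth loss, again on retest; inactive = the rest.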

System: CEM cells HIV-1 protection, formazan growth assay
Test: NCI AIDS Antiviral Assay
Settings: for pIC50: measured here: growth of uninfected CEM cells
Method in brief: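 Screen of anti-HIV-1 activity in human CEM cells using a formazan-based growth measurement at five drug concentrations. Hits with 50% or greater protection were repeated, and confirmation required reproducible complete protection.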

| SMILES | pEC50 | outcome | pIC50 |
| --- | --- | --- | --- |
| CN(C)C(=S)SSC(=S)N(C)C | < 3.70 | inactive | 5.30 and 5.97 |
| C=C(C)CN1C(=O)C(C)S/C1=N/N=C1/SCC(=O)N1C (stereo unspecified) | < 4.37 | – | < 4.37 |
| S=c1[nH]nc(-c2ccccc2)n1/N=C\c1ccc(-c2ccc(Cl)cc2)o1 | < 5.28 | – | < 5.28 |
| COC1(O)c2cccc(Cl)c2C(=O)N1C1(C(N)=O)CCCCC1 (stereo unspecified) | – | inactive | – |
| CCC1(c2ccccc2)C(=O)N=C(c2ccccc2)N1CCc1ccccc1 (stereo unspecified) | < 3.70 | – | < 3.70 |
| CC(=O)OCC1OC(n2c(C)cc(-c3cccc4ccccc34)c(C#N)c2=S)C(OC(C)=O)C(OC(C)=O)C1OC(C)=O (stereo unspecified) | < 3.70 | – | 4.67 |
| COc1cc(C)c2c(c1C)OC(=O)c1c(C)c(Cl)c(O)c(C=O)c1O2 | < 4.31 | – | < 4.31 |
| OC1(c2ccccc2)C2CCN(CC2)C1CN1CCOCC1 (stereo unspecified) | < 3.70 | – | < 3.70 |
| S=C(NNC1=NCCN1)Nc1ccccc1 | < 3.70 | – | 5.55 |
| CC(C)(C)SS(=O)C(C)(C)C (stereo unspecified) | < 4.01 | – | < 4.01 |
| CC1(C)CC23CC(C)(C)c4cccc(c42)OCc2ccc4ccc5ccc(nc5c4n2)COc2cccc1c23 | < 4.30 | – | < 4.30 |
| O=C(c1ccccc1)C(c1ccccc1)C1(O)C(=O)Nc2ccc([N+](=O)[O-])cc21 (stereo unspecified) | < 4.59 | – | < 4.59 |
| Cc1ccc(-c2sc(-c3ccc(C)cc3)c3c2C2CCC3C2)cc1 | < 3.70 | – | < 3.70 |
| [N-]=[N+]=NC1(c2ccccc2)C(=O)C(Cl)=C(c2ccccc2)N(c2ccccc2)C1=O (stereo unspecified) | < 3.70 | – | 3.90 |
| COc1cccc(NC(=O)CSc2nnc(-c3ccc(N=Cc4ccc(Cl)cc4)cc3)o2)c1 | < 4.12 | – | 4.60 |
| COc1cc(C2C(Cl)C(=O)N2NC(=O)Cc2ccccc2)cc(Br)c1O (stereo unspecified) | < 4.51 | – | < 4.51 |
| COC1CC(n2cnc3c(N)ncnc32)OC1CO (stereo unspecified) | < 3.70 | – | < 3.70 |
| CCCCCCC(=O)C/C(CCC(=O)N(Cc1ccccc1)Cc1ccccc1)=N\Nc1ccc([N+](=O)[O-])cc1[N+](=O)[O-] | < 4.91 | – | < 4.91 |
| CCOC(=O)NC(Nc1ccc(F)cc1F)(C(F)(F)F)C(F)(F)F | < 3.70 | – | < 3.70 |
| CCOC(=O)C(NCc1ccccc1)(NC(=O)c1ccccc1)C(F)(F)F (stereo unspecified) | – | inactive | – |
| CC(C)(CN1CCCCC1)C(=O)CC(SCCS(=O)(=O)O)c1ccc(Cl)c(Cl)c1 (stereo unspecified) | < 3.70 | – | 5.92 |
| O=c1[nH]c2ccc(CC(=S)N3CCN(c4ccccc4)CC3)cc2o1 | < 3.70 | – | < 3.70 |
| C=C(Br)CN(C(C)=O)C1CCCCC1 | < 3.70 | – | < 3.70 |

| SMILES | pEC50 | outcome | pIC50 |
| --- | --- | --- | --- |
| OCCC1(O)CCC(O)CC1 (stereo unspecified) | – | inactive | – |
| O=C(/C=C/c1ccsc1)c1ccco1 | < 3.70 | – | 4.96 |
| CCOC(=O)C(COS(C)(=O)=O)(COS(C)(=O)=O)C(=O)OCC | < 3.60 | – | 3.68 |
| CCOC(=O)CC(SP1(=S)OCC2(CC=CCC2)CO1)C(=O)OCC (stereo unspecified) | < 3.70 | – | 4.03 |
| [O-]c1c2c(nn1-c1ccc(Cl)cc1)c1ccccc1c[n+]2Cc1ccccc1 | < 5.29 | – | < 5.29 |
| CCCC/C=C/C/C=C/CCCCCCCCC(=O)OCC1CCCN2CCCCC12 (stereo unspecified) | < 3.70 | – | 5.10 |
| c1ccc2c(c1)Cc1c(Cc3csc4ccccc34)ccc3cccc-2c13 | < 5.14 | – | < 5.14 |
| O=c1[nH]c2cc(Cl)ccc2nc1/C(=N/Nc1ccccc1)C(O)c1ccco1 (stereo unspecified) | < 3.24 | – | < 3.24 |
| COc1nc(OC)nc(Sc2ccc(Sc3ccc(Sc4nc(OC)nc(OC)n4)cc3)cc2)n1 | < 4.87 | – | < 4.87 |
| COC(=O)CSc1cc(Cl)c(C)cc1S(=O)(=O)Nc1n[nH]c(N)n1 | < 3.70 | – | < 3.70 |
| O=C1OCCN(c2cccc(Cl)c2)CCO1 | – | inactive | – |
| C[C@H]1CC[P+](Cc2ccccc2)(c2ccccc2)C1 (stereo partly specified) | < 3.15 | – | 4.48 |
| N#CSc1nc[nH]c1C(N)=O | < 3.70 | – | 5.00 |
| COc1ccccc1NC(=O)CC(=O)NNCC(=O)Nc1nnc(-c2ccccc2)o1 | < 4.07 | – | < 4.07 |
| CNC(=S)NC1CCCCC1NC(=S)NC (stereo unspecified) | < 3.16 | – | < 3.16 |
| c1ccc2sc(SSSSc3nc4ccccc4s3)nc2c1 | < 3.70 | – | 3.76 |
| C/C(CC(O)(C(F)(F)F)C(F)(F)F)=N\O | < 3.70 | – | < 3.70 |
| NC(N)=N/N=C(/CCN1CCCC1)CC(c1ccccc1)c1c(O)c2ccccc2oc1=O (stereo unspecified) | < 4.41 | – | < 4.41 |
| CCCCCOP(=O)(OCCCCC)C(NC(C)=O)(C(=O)OCC)C(F)(F)F (stereo unspecified) | < 3.70 | – | 3.96 |
| COc1cc(C2c3cc4c(cc3OC(N3CCOCC3)C2C)OCO4)ccc1O (stereo unspecified) | < 3.70 | – | 5.29 |
| O=c1oc2cc(O)ccc2c(O)c1C(c1ccc2ccccc2c1)c1c(O)c2ccc(O)cc2oc1=O | – | inactive | – |
| O=C(Cc1ccccc1)NN1C(=O)C(Cl)C1c1ccccc1O (stereo unspecified) | < 4.11 | – | 4.61 |
| CCOC(=O)Nn1c(C)cc(C(=O)OC)c1C | – | inactive | – |

| SMILES | pEC50 | outcome | pIC50 |
| --- | --- | --- | --- |
| CCOC(=O)CCC1(C(=O)OCC)CCCC1=O (stereo unspecified) | < 3.58 | – | < 3.58 |
| COc1ccc(-c2cc(-c3ccccc3)n(C3OCC(OC(C)=O)C(OC(C)=O)C3OC(C)=O)c(=S)c2C#N)cc1 (stereo unspecified) | < 3.70 | – | 4.36 |
| COC(=O)n1c(=O)n(-c2ccccc2)c(=O)n1C(=O)OC | 3.81 | – | 3.71 |
| CCCCCCCCCCCCCCCCCC(=O)OCC(C[As](=O)(O)O)OC(=O)CCCCCCCCCCCCCCCCC (stereo unspecified) | < 4.75 | – | < 4.75 |
| Cc1ccc(NC(=O)CC(=O)n2nc(-c3ccccc3)c(N=Nc3ccccc3C(=O)O)c2-c2ccccc2)cc1 | < 4.60 | – | < 4.60 |
| O=C1NC(=O)C2(CC2)N1 | < 3.70 | – | < 3.70 |
| C[n+]1[se]c2ccccc2c1Cl | < 3.73 | – | 5.14 |
| C1=C(c2ccccc2)CN(c2ccccc2)OC1 | < 4.24 | – | < 4.24 |
| O=[N+]([O-])C1C2C=CC(C2)[C@H]1c1ccco1 (stereo partly specified) | – | inactive | – |
| COc1ccc2c(c1)-c1nc(=S)n(CCN(C)C)c3ccc([N+](=O)[O-])c(c13)N2 | < 5.70 | – | 6.41 |
| CCOC(=O)CSc1nc2ccccc2c(=O)n1N | < 3.70 | – | < 3.70 |
| N#CC(N)(C(=O)C(=O)NCCCNC(=O)C(=O)C(N)(C#N)c1ccc(Cl)cc1)c1ccc(Cl)cc1 (stereo unspecified) | < 3.76 | – | < 3.76 |
| Oc1ccc(C2Oc3cc(O)c4cc3C2c2c3c(cc5c2[C@@H](c2cc(O)cc(O)c2)C(c2ccc(O)cc2)O5)O[C@@H](c2ccc(O)cc2)C3c2cc(O)cc3c2C4[C@H](c2ccc(O)cc2)O3)cc1 (stereo partly specified) | < 4.80 | – | < 4.80 |
| O=C1C(=O)N(c2nccs2)C(=O)C(=O)C1c1nc2ccccc2s1 | < 4.00 | – | < 4.00 |
| CN(C=O)/C=C/c1cc(O)ccc1O | – | inactive | – |
| N#CCCN(c1ccc(C=Nc2cccc([N+](=O)[O-])c2)cc1)S(=O)(=O)c1ccccc1 | – | inactive | – |
| CN1C(=O)C(O)CC1c1cccc(C(F)(F)F)c1 (stereo unspecified) | – | inactive | – |
| O=[N+]([O-])c1ccccc1C1SCc2nc3ccccc3n21 (stereo unspecified) | < 4.41 | – | 4.47 |
| Clc1ccc(C2ON2C2CCCCC2)cc1 (stereo unspecified) | – | inactive | – |
| COC12CCCC1S(=O)(=O)C2 (stereo unspecified) | – | inactive | – |
| CC1=NC2(CCCCC2)N(Cl)C(=O)C1SC#N (stereo unspecified) | < 3.70 | – | 4.75 |
| COC(=O)/C=C\C(C#N)(C#N)N=Cc1ccsc1 | < 5.70 | – | 6.12 |
| COc1c(Br)cc(/C=C(\C#N)c2ccccn2)cc1Br | < 4.00 | – | < 4.00 |

| SMILES | pEC50 | outcome | pIC50 |
| --- | --- | --- | --- |
| COc1cc2c3cc1Oc1c(OC)c(OC)cc4c1[C@H](Cc1cc5c(c(c1)Oc1ccc(cc1)CC3N(C)CC2)OCO5)N(C)CC4 (stereo partly specified) | – | inactive | – |
| CCCCCCCCCCCCCP(=O)(OC)OC | – | inactive | – |
| CCC(=O)c1c(O)c2ccccc2oc1=O | < 3.70 | – | < 4.00 |
| N#Cc1nc(/C=C/c2cccnc2)oc1N | < 3.70 | – | < 3.70 |
| Clc1cc(Cl)c(NN=C(c2ccccc2)c2ccccc2)c(Cl)c1 | < 3.70 | – | < 3.70 |
| CN1C(=O)C2(C#N)C3(CCCC3)C2(C#N)C1=O (stereo unspecified) | < 4.36 | – | < 4.36 |
| O=C1NNC2(C(=O)N1)c1ccccc1-c1ccccc12 | < 3.70 | – | 4.03 |
| Clc1ccc(CNCCCNCc2ccc(Cl)cc2Cl)c(Cl)c1 | < 3.70 | – | 4.65 |
| COC(=O)N/N=C(\C)c1sc(-c2nc(C)c(/C(C)=N/NC(=O)OC)s2)nc1C | < 4.49 | – | < 4.49 |
| Cc1cccc(NC(=O)O/N=C(\Cl)C(C)C)c1 | < 4.70 | – | 5.55 |
| COC(=O)C(=O)C(C#N)c1cccc2ccccc12 (stereo unspecified) | – | inactive | – |
| CC(=O)OC1C(COS(=O)(=O)O)OC(O[C@H]2CC[C@@]3(C)C(=CC[C@@H]4C3CC[C@@]3(C)C4CC[C@@H]3C(C)=O)C2)C(OC(C)=O)C1OC(C)=O (stereo partly specified) | < 4.50 | – | < 4.50 |
| O=C(CC1(O)C(=O)Nc2c(Cl)cc(Cl)cc21)c1cccc2ccccc12 (stereo unspecified) | < 4.17 | – | < 4.17 |
| CCOC(=O)/C=C\n1c(=O)cc(C)c2ccccc21 | < 3.70 | – | < 3.70 |
| COC(=O)CC(=O)/C(=C/C(C/C=C(\C(=O)CC(=O)OC)C(=O)OC)OC)C(=O)OC (stereo unspecified) | < 3.70 | – | < 3.70 |
| C=C(C)C(CCC(=O)O)(CCC(=O)O)C(C)=O | < 2.99 | – | < 2.99 |
| Nc1nc2cc(Cl)ccc2n1N | < 3.70 | – | < 3.70 |
| CCOc1cc2c[n+](C)c3c4cc(OC)c(OC)cc4ccc3c2cc1OC | < 4.48 | – | < 4.48 |
| Cc1ccc(SSc2ccc(C(C)(C)C)cc2)cc1 | < 3.70 | – | 5.37 |
| O=C1C2C3C=C4c5ccccc5N(c5ccccc5)C4([C@@H]2C(=O)N1c1ccc(F)cc1)[C@H]1C(=O)N(c2ccc(F)cc2)C(=O)[C@@H]31 (stereo partly specified) | < 4.92 | – | < 4.92 |
| O=c1[nH]nc(Cl)c2c(O)c3ccccc3c(O)c12 | < 4.17 | – | 4.49 |
